Reference: patent US20250042889A1, “3CLPRO PROTEASE INHIBITOR” (SHANGHAI QILU PHARMACEUTICAL RESEARCH AND DEVELOPMENT …, priority 2021, published 2025)

Legend:
[1] = target: SARS-COV-2 3CLpro/Mpro protease (Severe acute respiratory syndrome coronavirus 2 (2019-nCoV) (SARS-CoV-2), UniProt P0DTD1); test: Inhibitory effect on SARS-COV-2 3CLpro/Mpro protease by fluorescence resonance energy transfer; format: biochemical; details: activity intervals A-D, read-out: IC50 (nM), Inhibition on SARS-CoV-2 3CLpro/Mpro protease
[2] = in vivo; details: male, CD1, mouse; for AUC / Vd / clearance / Cmax: in vivo; for half-life: plasma
[3] = male, CD1, mouse, in vivo, po, 10 mg/kg

Which IC50 [1] does the source give for `CNc1cncc(C(=O)N2CCC[C@@H](Nc3c(C(=O)N4CCO[C@H](C)C4)cc(Br)cc3[N+](=O)[O-])C2)c1` [Example 35] here?
The IC50 was 10 to 50 nM.

And the AUC ([2]; iv, 1 mg/kg)?
Its AUC is 112 ng·h/mL.

What about the Vd ([2]; iv, 1 mg/kg) of the same compound?
The Vd was 1.28 L/kg.

And the clearance ([2]; iv, 1 mg/kg)?
The clearance was 9.12 mL/min/kg.

What about the AUC ([2]; po, 10 mg/kg) of the same compound?
Its AUC is 668 ng·h/mL.

And the Cmax ([2]; po, 10 mg/kg)?
Its Cmax is 1020 ng/mL.

And the half-life ([2]; iv, 1 mg/kg)?
The half-life was 8.1 min.

What about the F [3] of the same compound?
Its F is 60%.

For `CNc1cncc(C(=O)N2CCC[C@@H](Nc3c(C(=O)N4CCCC(F)(F)C4)cc(Br)cc3[N+](=O)[O-])C2)c1` [Example 36, (R)-(5-bromo-2-((1-(5-(methylamino)nicotinoyl)piperidin-3-yl)amino)-3-nitrophenyl)(3,3-difluoropiperidin-1-yl)methanone], which IC50 [1] is on record?
Its IC50 is 10 to 50 nM.

What about the AUC ([2]; iv, 1 mg/kg) of the same compound?
Its AUC is 92 ng·h/mL.

And the Vd ([2]; iv, 1 mg/kg)?
Its Vd is 1.7 L/kg.

And the clearance ([2]; iv, 1 mg/kg)?
Its clearance is 11.2 mL/min/kg.

What about the AUC ([2]; po, 10 mg/kg) of the same compound?
The AUC was 273 ng·h/mL.

And the Cmax ([2]; po, 10 mg/kg)?
The Cmax was 365 ng/mL.

What about the half-life ([2]; iv, 1 mg/kg) of the same compound?
The half-life was 8.16 min.

And the F [3]?
Its F is 29.7%.

For `CNc1cncc(C(=O)N2C[C@H](Nc3c(C(=O)N4C[C@@H](C)O[C@@H](C)C4)cc(Br)cc3[N+](=O)[O-])C[C@H]2C(=O)Nc2cc(C(F)(F)F)ncn2)c1` [Example 436, (2S,4R)-4-((4-bromo-2-((2R,6S)-2,6-dimethylmorpholin-4-carbonyl)-6-nitrophenyl)amino)-1-(5-(methylamino)nicotinoyl)-N-(6-(trifluoromethyl)pyrimidin-4-yl) pyrrolidine-2-formamide], which IC50 [1] is on record?
Its IC50 is 50 to 100 nM.

With `CNc1cncc(C(=O)N2C[C@H](Nc3c(C(=O)N4C[C@@H](C)O[C@@H](C)C4)cc(Br)cc3[N+](=O)[O-])C[C@H]2C(=O)N[C@H]2CC(=O)N(C)C2)c1` [Example 437] as the compound, how does the IC50 [1] read?
Its IC50 is 50 to 100 nM.

Which IC50 [1] does the source give for `CNc1cncc(C(=O)N2C[C@H](Nc3c(C(=O)N4C[C@@H](C)O[C@@H](C)C4)cc(Br)cc3[N+](=O)[O-])C[C@H]2C(=O)Nc2nn(C3C[C@@H](C)O[C@@H](C)C3)cc2Br)c1` (stereo partly drawn) [Example 438] here?
Its IC50 is 10 to 50 nM.

With `CO[C@H]1CN(C(=O)c2cncc3[nH]nc(C)c23)C[C@@H]1Nc1c(C(=O)N2C[C@@H](C)O[C@@H](C)C2)cc(Br)cc1[N+](=O)[O-]` [Example 439, (5-Bromo-2-(((3S,4S)-4-methoxy-1-(3-methyl-1H-pyrazolo[3,4-c]pyridin-4-carbonyl)pyrrolidin-3-yl)amino)-3-nitrophenyl)((2S,6R)-2,6-dimethylmorpholinyl)methanone] as the compound, how does the IC50 [1] read?
The IC50 was 10 to 50 nM.

Which IC50 [1] does the source give for `CNc1cncc(C(=O)N2C[C@H](Nc3c(-c4nnn(C)n4)cc(Br)cc3[N+](=O)[O-])[C@@H](OC)C2)c1` [Example 440, ((3S,4S)-3-((4-bromo-2-(2-methyl-2H-tetrazol-5-yl)-6-nitrophenyl)amino)-4-methoxypyrrolidin-1-yl)(5-(methylamino)pyridin-3-yl)methanone] here?
Its IC50 is 50 to 100 nM.

With `CNc1cncc(C(=O)N2C[C@H](Nc3c(C(=O)N4C[C@@H](C)O[C@@H](C)C4)cc(Br)cc3[N+](=O)[O-])C[C@H]2C(=O)Nc2cc(Cl)ncn2)c1` [Example 441, (2S,4R)-4-((4-bromo-2-((2R,6S)-2,6-dimethylmorpholin-4-carbonyl)-6-nitrophenyl)amino)-N-(6-chloropyrimidin-4-yl)-1-(5-(methylamino)nicotinoyl) pyrrolidine-2-formamide] as the compound, how does the IC50 [1] read?
Its IC50 is 10 to 50 nM.

For `CNc1cncc(C(=O)N2C[C@H](Nc3c(C(=O)N4C[C@@H](C)O[C@@H](C)C4)cc(Br)cc3[N+](=O)[O-])C[C@H]2C(=O)Nc2ccnc(Cl)n2)c1` [Example 442, (2S,4R)-4-((4-bromo-2-((2R,6S)-2,6-dimethylmorpholin-4-carbonyl)-6-nitrophenyl)amino)-N-(2-chloropyrimidin-4-yl)-1-(5-(methylamino)nicotinoyl) pyrrolidine-2-formamide], which IC50 [1] is on record?
The IC50 was 10 to 50 nM.

Which IC50 [1] does the source give for `[2H]C([2H])([2H])Nc1cncc(C(=O)N2C[C@H](Nc3c(C(=O)N4C[C@@H](C)O[C@@H](C)C4)cc(Br)cc3[N+](=O)[O-])[C@@H](OC)C2)c1` [Example 443] here?
Its IC50 is 10 to 50 nM.

With `CO[C@H]1CN(C(=O)c2cncc3[nH]nc(Cl)c23)C[C@@H]1Nc1c(C(=O)N2C[C@@H](C)O[C@@H](C)C2)cc(Br)cc1[N+](=O)[O-]` [Example 444, (5-Bromo-2-(((3S,4S)-1-(3-chloro-1H-pyrazolo[3,4-c]pyridin-4-carbonyl)-4-methoxypyrrolidin-3-yl)amino)-3-nitrophenyl)((2S,6R)-2,6-dimethylmorpholinyl)methanone] as the compound, how does the IC50 [1] read?
The IC50 was 10 to 50 nM.

For `CNc1cncc(C(=O)N2C[C@H](Nc3c(C(=O)N4C[C@@H](C)O[C@@H](C)C4)cc(Br)cc3[N+](=O)[O-])C[C@H]2C(=O)Nc2ncc(Br)cn2)c1` [Example 445, (2S,4R)-4-((4-bromo-2-((2R,6S)-2,6-dimethylmorpholin-4-carbonyl)-6-nitrophenyl)amino)-N-(5-bromopyrimidin-2-yl)-1-(5-(methylamino)nicotinoyl) pyrrolidine-2-formamide], which IC50 [1] is on record?
The IC50 was 50 to 100 nM.

Which IC50 [1] does the source give for `CNc1cncc(C(=O)N2C[C@H](Nc3c(C(=O)N4C[C@@H](C)O[C@@H](C)C4)cc(Br)cc3[N+](=O)[O-])C[C@@H](OCCOC)C2)c1` [Example 446] here?
Its IC50 is 10 to 50 nM.

With `CNc1cncc(C(=O)N2C[C@H](Nc3c(C(=O)N4C[C@@H](C)O[C@@H](C)C4)cc(Br)cc3[N+](=O)[O-])C[C@H]2COC)c1` [Example 447] as the compound, how does the IC50 [1] read?
The IC50 was 50 to 100 nM.

Which IC50 [1] does the source give for `CNc1cncc(C(=O)N2C[C@H](Nc3c(C(=O)N4C[C@@H](C)O[C@@H](C)C4)cc(Br)cc3[N+](=O)[O-])C[C@@H](O[C@@H]3CCOC3)C2)c1` [Example 448] here?
Its IC50 is 10 to 50 nM.

Which IC50 [1] does the source give for `CO[C@H]1CN(C(=O)c2cncc3[nH]c(C)nc23)C[C@@H]1Nc1c(C(=O)N2C[C@@H](C)O[C@@H](C)C2)cc(Br)cc1[N+](=O)[O-]` [Example 449, (5-Bromo-2-(((3S,4S)-4-methoxy-1-(2-methyl-3H-imidazol[4,5-c]pyridin-7-carbonyl)pyrrolidin-3-yl)amino)-3-nitrophenyl)((2S,6R)-2,6-dimethylmorpholinyl)methanone] here?
The IC50 was 50 to 100 nM.

Which IC50 [1] does the source give for `CNc1cncc(C(=O)N2C[C@H](Nc3c(C(=O)N4C[C@@H](C)O[C@@H](C)C4)cc(Br)cc3[N+](=O)[O-])C[C@H]2C(=O)NCc2ccnc(C(F)(F)F)n2)c1` [Example 450, (2S,4R)-4-((4-bromo-2-((2R,6S)-2,6-dimethylmorpholin-4-carbonyl)-6-nitrophenyl)amino)-1-(5-(methylamino)nicotinoyl)-N-((2-(trifluoromethyl)pyrimidin-4-yl)methyl) pyrrolidine-2-formamide] here?
Its IC50 is 10 to 50 nM.

For `[2H]C([2H])([2H])Nc1cncc(C(=O)N2C[C@H](Nc3c(C(=O)N4C[C@@H](C)O[C@@H](C)C4)cc(Br)cc3[N+](=O)[O-])[C@@H](OC([2H])([2H])[2H])C2)c1` [Example 451], which IC50 [1] is on record?
The IC50 was 10 to 50 nM.

Which IC50 [1] does the source give for `CNc1cncc(C(=O)N2C[C@H](Nc3c(C(=O)N4C[C@@H](C)O[C@@H](C)C4)cc(Br)cc3[N+](=O)[O-])C[C@@H](O[C@H]3CCOC3)C2)c1` [Example 452, (5-Bromo-2-(((3R,5R)-1-(5-(methylamino)nicotinoyl)-5-((S)-tetrahydrofuran-3-yl)oxy)piperidin-3-amino)-3-nitrophenyl)((2S,6R)-2,6-dimethylmorpholinyl)methanone] here?
The IC50 was 50 to 100 nM.

For `CO[C@H]1CN(C(=O)c2cncc3[nH]nnc23)C[C@@H]1Nc1c(C(=O)N2C[C@@H](C)O[C@@H](C)C2)cc(Br)cc1[N+](=O)[O-]` [Example 454, (5-Bromo-2-(((3S,4S)-4-methoxy-1-(2-methyl-3H-1,2,3-triazole[4,5-c]pyridin-7-carbonyl)pyrrolidin-3-yl)amino)-3-nitrophenyl)((2S,6R)-2,6-dimethylmorpholinyl)methanone], which IC50 [1] is on record?
Its IC50 is 10 to 50 nM.

For `CNc1cncc(C(=O)N2C[C@H](Nc3c(C(=O)N4C[C@@H](C)O[C@@H](C)C4)cc(Br)cc3[N+](=O)[O-])[C@@H](OCc3ccccc3)C2)c1` [Example 455], which IC50 [1] is on record?
The IC50 was 10 to 50 nM.

With `CNc1cncc(C(=O)N2C[C@H](Nc3c(C(=O)N4C[C@@H](C)O[C@@H](C)C4)cc(Br)cc3[N+](=O)[O-])[C@@H](OCc3ccc(OC)nc3)C2)c1` [Example 456, (5-Bromo-2-(((3S,4S)-4-((6-methoxypyridin-3-yl)methoxy)-1-(5-methylamino)nicotinoyl)pyrrolidin-3-amino)-3-nitrophenyl)((2S,6R)-2,6-dimethylmorpholinyl)methanone] as the compound, how does the IC50 [1] read?
Its IC50 is 10 to 50 nM.

For `CNc1cncc(C(=O)N2C[C@H](Nc3c(C(=O)N4C[C@@H](C)O[C@@H](C)C4)cc(Br)cc3[N+](=O)[O-])[C@@H](OCc3ccc(C(F)(F)F)nc3)C2)c1` [Example 457, (5-Bromo-2-((3S,4S)-1-(5-(methylamino)nicotinoyl)-4-((6-(trifluoromethyl)pyridin-3-yl)methoxy)pyrrolidin-3-amino)-3-nitrophenyl)((2S,6R)-2,6-dimethylmorpholinyl)methanone], which IC50 [1] is on record?
Its IC50 is 100 to 200 nM.

Which IC50 [1] does the source give for `CNc1cncc(C(=O)N2C[C@H](Nc3c(C(=O)N4C[C@@H](C)O[C@@H](C)C4)cc(Br)cc3[N+](=O)[O-])[C@@H](OCc3ccccn3)C2)c1` [Example 458] here?
Its IC50 is 10 to 50 nM.

Which IC50 [1] does the source give for `CNc1cncc(C(=O)N2C[C@H](Nc3c(C(=O)N4C[C@@H](C)O[C@@H](C)C4)cc(Br)cc3[N+](=O)[O-])[C@@H](OCc3ccc(F)cn3)C2)c1` [Example 459] here?
The IC50 was 10 to 50 nM.

Which IC50 [1] does the source give for `CNc1cncc(C(=O)N2C[C@H](Nc3c(C(=O)N4C[C@@H](C)O[C@@H](C)C4)cc(Br)cc3[N+](=O)[O-])[C@@H](OCc3ncco3)C2)c1` [Example 460] here?
The IC50 was 10 to 50 nM.

For `CNc1cncc(C(=O)N2C[C@H](Nc3c(C(=O)N4C[C@@H](C)O[C@@H](C)C4)cc(Br)cc3[N+](=O)[O-])[C@@H](OCc3nccs3)C2)c1` [Example 461], which IC50 [1] is on record?
Its IC50 is 10 to 50 nM.

Which IC50 [1] does the source give for `CNc1cncc(C(=O)N2C[C@H](Nc3c(C(=O)N4C[C@@H](C)O[C@@H](C)C4)cc(Br)cc3[N+](=O)[O-])[C@@H](OCc3cncn3C)C2)c1` [Example 462, (5-Bromo-2-(((3S,4S)-4-((1-methyl-1H-imidazol-5-yl)methoxy)-1-(5-(methylamino)nicotinoyl)pyrrolidin-3-yl)amino)-3-nitrophenyl)((2S,6R)-2,6-dimethylmorpholinyl)methanone] here?
The IC50 was 10 to 50 nM.
